Results: paper PMC9105976, “A Novel β-Hairpin Peptide Z-d14CFR Enhances Multidrug-Resistant Bacterial Clearance in a Murine Model of Mastitis” (International Journal of Molecular Sciences, 2022)
Positions of bridges follow the written chain, without caps; N, C: chain ends. Residues, ends and D or L forms follow the SMILES beside them.

Assays:
[1] = system: Klebsiella pneumoniae CAU202084; assay: MIC/MBC, microdilution broth method; assay type: cell-based; conditions: Klebsiella pneumoniae CAU202084 (MDR isolate); for MIC: 1 × 10^6 CFU/mL, 18 h at 37 °C, NA = no antimicrobial activity at 1 mg/mL; for MBC: kills 99.9% bacteria, NA = no activity at 1 mg/mL
Procedure: (§1) The MIC of peptides against bacteria was carried out by the microdilution broth method. The bacterial culture (OD 600 = 0.6) was diluted in 10 mM PBS to 1 × 10^6 CFU/mL. The bacterial suspension (100 μL) was added to 96-well plates, and the same volume of peptides, ampicillin or gentamicin (concentrations ranging from 0.001 to 2 mg/mL) were then added to the same 96-well plates, respectively.

[2] = system: Proteus vulgaris CVCC1971; assay: MIC/MBC, microdilution broth method; assay type: cell-based; conditions: Proteus vulgaris CVCC1971; for MIC: 1 × 10^6 CFU/mL, 18 h at 37 °C, NA = no antimicrobial activity at 1 mg/mL; for MBC: kills 99.9% bacteria, NA = no activity at 1 mg/mL
Procedure: as §1

[3] = system: Salmonella typhimurium ATCC14028; assay: MIC/MBC, microdilution broth method; assay type: cell-based; conditions: Salmonella typhimurium ATCC14028; for MIC: 1 × 10^6 CFU/mL, 18 h at 37 °C, NA = no antimicrobial activity at 1 mg/mL; for MBC: kills 99.9% bacteria, NA = no activity at 1 mg/mL
Procedure: as §1

[4] = system: Staphylococcus haemolyticus CAU202078; assay: MIC/MBC, microdilution broth method; assay type: cell-based; conditions: Staphylococcus haemolyticus CAU202078 (MDR isolate); for MIC: 1 × 10^6 CFU/mL, 18 h at 37 °C, NA = no antimicrobial activity at 1 mg/mL; for MBC: kills 99.9% bacteria, NA = no activity at 1 mg/mL
Procedure: as §1

[5] = system: Streptococcus suis CVCC3307; assay: MIC/MBC, microdilution broth method; assay type: cell-based; conditions: Streptococcus suis CVCC3307; for MIC: 1 × 10^6 CFU/mL, 18 h at 37 °C, NA = no antimicrobial activity at 1 mg/mL; for MBC: kills 99.9% bacteria, NA = no activity at 1 mg/mL
Procedure: as §1

MRSA ATCC33591 = assay: MIC/MBC, microdilution broth method; assay type: cell-based, S. aureus; conditions: for MIC: MRSA (methicillin-resistant S. aureus) ATCC33591, 1 × 10^6 CFU/mL, 18 h at 37 °C, NA = no antimicrobial activity at 1 mg/mL; for MBC: MRSA ATCC33591, kills 99.9% bacteria, NA = no activity at 1 mg/mL
Procedure: as §1

[6] = Retention time of peptide in HPLC (hydrophobicity); assay type: physicochemical; conditions: used as measure of hydrophobicity (order Z-d14CR > Z-d14CF > Z-d13 > Z-d14CFR > Z-d14C); column and gradient not given
[7] = system: Escherichia coli CAU 201919; assay: MIC/MBC, microdilution broth method; assay type: cell-based; conditions: Escherichia coli CAU 201919 (MDR isolate)
Procedure: as §1

[8] = system: Escherichia coli CVCC1450; assay: MIC/MBC, microdilution broth method; assay type: cell-based; conditions: Escherichia coli CVCC1450
Procedure: as §1

[9] = system: Staphylococcus aureus ATCC29213; assay: MIC/MBC, microdilution broth method; assay type: cell-based; conditions: Staphylococcus aureus ATCC29213
Procedure: as §1

[10] = 1 × 10^6 CFU/mL, 18 h at 37 °C, NA = no antimicrobial activity at 1 mg/mL
[11] = kills 99.9% bacteria, NA = no activity at 1 mg/mL

Structure (SMILES)	MIC [1]	MBC [1]	MIC [2]	MBC [2]	MIC [3]	MBC [3]	MIC [4]	MBC [4]	MIC [5]	MBC [5]	MIC (MRSA ATCC33591)	MBC (MRSA ATCC33591)	RT, retention time of peptide in HPLC [6]	MIC [7, 10]	MBC [7, 11]	MIC [8, 10]	MBC ([8]; minimum concentration which kills 99.9% bacteria, NA = no activity at 1 mg/mL)	MIC [9, 10]	MBC [9, 11]
CC(C)[C@@H]1NC(=O)[C@@H]2CSSC[C@H](NC(=O)[C@H](CCCNC(=N)N)NC(=O)[C@@H](NC(=O)CNC(=O)[C@@H](N)CCCNC(=N)N)CSSC[C@@H](C(=O)N[C@@H](CCCNC(=N)N)C(N)=O)NC1=O)C(=O)N[C@@H](CC(N)=O)C(=O)N[C@@H](CO)C(=O)N[C@@H](CCCCN)C(=O)N[C@@H](CO)C(=O)N[C@@H](C(C)C)C(=O)N2 [Z-d14CR] (H-RGCRCNSKSVCVCR-NH2; disulfide 3-13, 5-11; N-terminus assumed)	NA (NA) (No antimicrobial activity at 1 mg/mL)	NA (NA) (No antimicrobial activity at 1 mg/mL)	NA (NA) (No antimicrobial activity at 1 mg/mL)	NA (NA) (No antimicrobial activity at 1 mg/mL)	NA (NA) (No antimicrobial activity at 1 mg/mL)	NA (NA) (No antimicrobial activity at 1 mg/mL)	NA (NA) (No antimicrobial activity at 1 mg/mL)	NA (NA) (No antimicrobial activity at 1 mg/mL)	NA (NA) (No antimicrobial activity at 1 mg/mL)	NA (NA) (No antimicrobial activity at 1 mg/mL)	NA (NA) (No antimicrobial activity at 1 mg/mL)	NA (NA) (No antimicrobial activity at 1 mg/mL)	10.159 min						
CC(C)[C@@H]1NC(=O)[C@@H]2CSSC[C@H](NC(=O)[C@H](Cc3ccc(O)cc3)NC(=O)[C@@H](NC(=O)CNC(=O)[C@@H](N)CCCNC(=N)N)CSSC[C@@H](C(=O)N[C@@H](CCCNC(=N)N)C(N)=O)NC1=O)C(=O)N[C@@H](CC(N)=O)C(=O)N[C@@H](CO)C(=O)N[C@@H](CCCCN)C(=O)N[C@@H](CO)C(=O)N[C@@H](C(C)C)C(=O)N2 [Z-d14C] (H-RGCYCNSKSVCVCR-NH2; disulfide 3-13, 5-11; N-terminus assumed)	NA (NA) (No antimicrobial activity at 1 mg/mL)	NA (NA) (No antimicrobial activity at 1 mg/mL)	NA (NA) (No antimicrobial activity at 1 mg/mL)	NA (NA) (No antimicrobial activity at 1 mg/mL)	NA (NA) (No antimicrobial activity at 1 mg/mL)	NA (NA) (No antimicrobial activity at 1 mg/mL)	NA (NA) (No antimicrobial activity at 1 mg/mL)	NA (NA) (No antimicrobial activity at 1 mg/mL)	NA (NA) (No antimicrobial activity at 1 mg/mL)	NA (NA) (No antimicrobial activity at 1 mg/mL)	NA (NA) (No antimicrobial activity at 1 mg/mL)	NA (NA) (No antimicrobial activity at 1 mg/mL)	7.809 min	NA (NA) (No antimicrobial activity at 1 mg/mL)	NA (NA) (No antimicrobial activity at 1 mg/mL)	NA (NA) (No antimicrobial activity at 1 mg/mL)	NA (NA) (No antimicrobial activity at 1 mg/mL)	NA (NA) (No antimicrobial activity at 1 mg/mL)	NA (NA) (No antimicrobial activity at 1 mg/mL)
